Where two headings read alike, the source gives them in different places.

Data set [1] deals with Plasmodium falciparum strain Pf3D7. In words: In vitro antiplasmodial assay (pLDH assay). Conditions: read-out: IC50 Pf3D7.
Data set [2] can be described thus: Cytotoxicity assay (resazurin). Conditions: human, compounds and combinations, HeLa cells, read-out: % Cell Viability ± sd Cytotoxicity. It counts as cell-based. As to the method: Human cervix adenocarcinoma cells (HeLa cells) were used to check the toxicity of the crude extract and compounds and their combinations as described by Keusch et al. (1972). Stocks solutions were prepared in DMSO at a concentration of 50 μg/mL for the extracts and 20 μM for compounds, and combinations. To assess the overt cytotoxicity, samples were placed in 96-well plates containing cells for 48 h. The numbers of cells surviving drug treatment were determined using the resazurin based reagent and reading resorufin fluorescence in a Spectramax M3 microplate reader. Results were expressed as % viability-the resorufin fluorescence in compound-treated wells relative to untreated controls. Compounds were tested in duplicate and standard deviations (SD) derived. […] (which induces cell apoptosis) was used as the positive control.
(Resazurin is reduced to fluorescent resorufin, in cell work by metabolically active cells.)

In data set [3] the test system is Trypanosoma brucei brucei. Description: In vitro antitrypanosomal assay (resazurin viability). As to conditions: for antitrypanosomal activity against Tb brucei (in words): in vitro; for IC50: Trypanosoma brucei.
Where [4] appears, read: read-out: IC50 Tb brucei, compounds, values given in µg/mL in the text.

With `CCN(CC)CCCC(C)Nc1ccnc2cc(Cl)ccc12` (stereo not drawn) [Chloroquine], in data set [1], the IC50 worked out at 0.034 µM.
As a reminder, the viability is the share of living cells, or the viability signal relative to a control. With `CCCC/C=C\CCCCc1ccccc1` [Compound 3, (5Z) 1-phenyldec-5-ene], the viability at 48 h, 20 µM (stock) in data set [2] amounted to 50.3 ± 8.9%.
In the case of `O=C(O)CCCCCCCCCCCCCCc1ccccc1` [Compound 5, 15-phenylpentadecanoic acid], the viability at 48 h, 20 µM (stock) in data set [2] is 76.6 ± 4.1%.
For `CCCCCCCCC1C2C=CC3C(C(=O)O)C=CC4CC1C2C43` (stereo not drawn) [Compound 11, beilschmiedic acid E], the viability at 48 h, 20 µM (stock) in data set [2] was 100 ± 5.8%. Also, the “antitrypanosomal activity against Tb brucei (in words)” value in data set [3] is “inactive”.
The corresponding values for `CCCCCCCCC1C2C=CC3C(CO)C=CC4CC1C2C43` (stereo not drawn) [Compound 11a, beilschmiedol A] are 52.6 ± 1.8% and “moderate activity”.
As to `CCCCCCCC[C@@H]1[C@H]2C=C[C@H]3C(C=O)=CC[C@@H]4C[C@@H]1[C@@H]2[C@H]43` [Compound 11b, beilschmiedal], the viability at 48 h, 20 µM (stock) in data set [2] came out at 79.6 ± 17.1%. Also, the IC50 came out at 31.4 µM in data set [1] and 8.3 µg/mL in data set [3] (setting [4]).
Consider `CCCCCCCC[C@@H]1[C@H]2C=C[C@H]3C(/C=N/NC(N)=S)=CC[C@@H]4C[C@@H]1[C@@H]2[C@H]43` [Compound 11c, beilschmiecarbazone], for which the viability at 48 h, 20 µM (stock) in data set [2] is 100 ± 2.8%.
Take `CCCCCCCCC1C2C=CC3C(COC(=O)c4cc(OC)c(OC)c(OC)c4)C=CC4CC1C2C43` (stereo not drawn) [Compound 11d, beilschmiegallate]: the viability at 48 h, 20 µM (stock) in data set [2] is 100 ± 3.4%.
For `O=C(O)C[C@@H]1[C@H]2C=C[C@H]3C(c4ccc5c(c4)OCO5)=CC[C@@H]4C[C@@H]1[C@@H]2[C@H]43` [Compound 12, methylenedioxyendiandric acid A], in data set [2], the viability at 48 h, 20 µM (stock) amounted to 100 ± 10.8%.
For the compound `CC[C@H](CC[C@@H](C)[C@H]1CC[C@H]2[C@@H]3CC=C4C[C@@H](O)CC[C@]4(C)[C@H]3CC[C@]12C)C(C)C` [Compound 13, β-sitosterol], the IC50 in data set [3] (48 h, read-out: IC50 Tb Brucei, isolated compounds, mixtures and drug standard, dose-response, for 6 + 7 IC50 maximum calculated with the constituent of lowest molecular mass) was 9.5 µM.
On to `N=C(N)c1ccc(OCCCCCOc2ccc(C(=N)N)cc2)cc1` [Pentamidine, reference compound], for which, in data set [3] (setting [4]), the IC50 was about 0.01 µg/mL.

(Values after paper PMC7357032, “Antiparasitic Constituents of Beilschmiedia louisii and Beilschmiedia obscura and Some Semisynthetic Derivatives (Lauraceae)” (Molecules, 2020).)
